Where a name gives a salt, the structure may show the parent alone.
Tests used:
[1] = system: SRS-A-like active substance; experiment: A23187-induced pleurisy; inhibition of formation of SRS-A-like active substance in pleural exudate; format: in vivo, rat (Wistar-strain, male, 11 weeks old); conditions: Rattus norvegicus, po, p.o., 60 minutes before intrapleural A23187, rats, vs solvent control, read-out: Inhibitory activity on the formation of SRS-A-like active substance
Protocol: (1) Preparation of A23187 -induced pleurisy Under ether anaesthesia, 0.2 ml of 100 μM A23187 (prepared by adding injectable distilled water in a 2 mM A23187 ethanol solution) was administered intrapleurally to rats (Wistar-strain, male, 11 weeks old). Twenty minutes after the administration, the rats were exsanguinated and the pleural exudate was harvested. […] (2) Measurement of SRS-A-like active substance To the exudate obtained in (1) was added 4 times its volume of ice-cooled ethanol. They were well mixed, and then centrifuged. […] The solution was added to SEP-PAK® (C18) and SRS-A-like active substance was partially purified. […] The residue was dissolved in purified water in an amount corresponding to the amount of the exudate. The SRS-A-like active substance was assayed on the basis of contraction of the ileum of guinea pig (Hartley-strain, male, body weight 400-500 g) in the presence of atropine and Pyrilamine. The presence of SRS-A was confirmed by the fact that the contraction of the isolated ileum by the test solution was antagonized by FPL-55712 which is a specific antagonist for SRS-A. The results are shown in the following table. The activity of inhibiting the formation of an SRS-A-like active substance is indicated as the percent inhibition based on a control group to which only the solvent was administered.

[2] = system: SRS-A; experiment: Contraction of isolated guinea pig ileum by the test solution (confirmation of SRS-A); design: species or system guinea pig (Hartley-strain, male); conditions: in the presence of atropine and Pyrilamine
Protocol: The SRS-A-like active substance was assayed on the basis of contraction of the ileum of guinea pig (Hartley-strain, male, body weight 400-500 g) in the presence of atropine and Pyrilamine. The presence of SRS-A was confirmed by the fact that the contraction of the isolated ileum by the test solution was antagonized by FPL-55712 which is a specific antagonist for SRS-A.

[3] = system: SD-strain male rats; experiment: Toxicity, oral administration, observation for 2 weeks; format: in vivo, rat (SD-strain; conditions: 5 g/kg, 10% gum arabic suspension, 5-membered groups
From the text: The test compound was suspended in a 10% gum arabic solution, and orally administered to SD-strain male rats (body weight 100-115 g) in 5-membered groups.

[4] = system: lipoxygenase; conditions: known from the prior art; cited from earlier work
[5] = system: cyclooxygenase; conditions: known from the prior art; cited from earlier work

| Compound | inhibition at 10 mg/kg [1] [%] | other results |
| --- | --- | --- |
| CCc1c(-c2cc(C)c(O)c(C)c2)[nH]c2ccc(OC)cc12 [Example 45, 3-ethyl-2-(4-hydroxy-3,5-dimethylphenyl)-5-methoxyindole] | 52.7 | – |
| CCN(CC)CCNc1ccc2[nH]c(-c3cc(C)c(O)c(C)c3)c(C)c2c1 [Example 38, 5-(2-diethylaminoethylamino)-2-(4-hydroxy-3,5-dimethylphenyl)-3-methylindole dihydrochloride] | 38.3 | – |
| CCCc1c(OCC(O)COc2ccc3c(=O)cc(C(=O)O)oc3c2CCC)ccc(C(C)=O)c1O (centres unmarked) [FPL-55712] | – | antagonism of contraction of the isolated ileum [2]: antagonized |
| Cc1cc(-c2[nH]c3ccc(OC(C)C)cc3c2C)cc(C)c1O [Example 9, 2-(4-Hydroxy-3,5-dimethylphenyl)-3-methyl-5-isopropoxyindole] | 58.4 | – |
| COc1ccc2[nH]c(-c3cc(C)c(O)c(C)c3)c(C)c2c1 [Example 1, 2-(4-hydroxy-3,5-dimethylphenyl)-5-methoxy-3-methylindole] | 66.2 | death [3]: No case of death was observed |
| Cc1cc(-c2[nH]c3ccc(N)cc3c2C)cc(C)c1O [Example 33, 5-amino-2-(4-hydroxy-3,5-dimethylphenyl)-3-methylindole] | 68.1 | – |
| Cc1ccc2c(C)c(-c3cc(C)c(O)c(C)c3)[nH]c2c1 [Example 14, 2-(4-Hydroxy-3,5-dimethylphenyl)-3,6-dimethylindole] | 30.7 | – |
| NC1=NN(c2cccc(C(F)(F)F)c2)CC1 [BW755C, 3-amino-1-(3-trifluoromethylphenyl)-2-pyrazoline] | – | lipoxygenase inhibition [4]: lipoxygenase inhibitors; cyclooxygenase inhibition (lack of specificity) [5]: lack specificity and inhibit not only lipoxygenase but also cyclooxygenase |
| CCCCCC#CCC#CCC#CCC#CCCCC(=O)O [5,8,11,14-eicosatetraynoic acid] | – | lipoxygenase inhibition [4]: lipoxygenase inhibitors; cyclooxygenase inhibition (lack of specificity) [5]: lack specificity and inhibit not only lipoxygenase but also cyclooxygenase |
| CCCOc1ccc2[nH]c(-c3cc(C)c(O)c(C)c3)c(C)c2c1 [Example 43, 2-(4-hydroxy-3,5-dimethylphenyl)-3-methyl-5-n-propoxyindole] | 46.2 | – |
| CCc1cc(-c2[nH]c3ccccc3c2CC)cc(CC)c1O [Example 50, 3-ethyl-2-(3,5-diethyl-4-hydroxyphenyl)indole] | 21.5 | – |
| CCN(CC)CCOc1ccc2[nH]c(-c3cc(C)c(O)c(C)c3)c(C)c2c1 [Example 35, 5-(2-diethylaminoethoxy)-2-(4-hydroxy-3,5-dimethylphenyl)-3-methylindole] | 39.1 | – |
| Cc1ccc2[nH]c(-c3cc(C)c(O)c(C)c3)c(C)c2c1 [Example 5, 2-(4-Hydroxy-3,5-dimethylphenyl)-3,5-dimethylindole] | 54.7 | – |
| CCOc1ccc2[nH]c(-c3cc(C)c(O)c(C)c3)c(C)c2c1 [Example 8, 5-Ethoxy-2-(4-hydroxy-3,5-dimethylphenyl)-3-methylindole] | 28.7 | – |
| Cc1cc(-c2[nH]c3c(C)cccc3c2C)cc(C)c1O [Example 16, 2-(4-Hydroxy-3,5-dimethylphenyl)-3,7-dimethylindole] | 37.5 | – |
| CC(=O)Oc1ccc2[nH]c(-c3cc(C)c(O)c(C)c3)c(C)c2c1 [Example 37] | 43.7 | – |
| Cc1cc(-c2[nH]c3ccc(OCc4ccccc4)cc3c2C)cc(C)c1O [Example 36, 5-benzyloxy-2-(4-hydroxy-3,5-dimethylphenyl)-3-methylindole] | 35.4 | – |
| CSc1ccc2[nH]c(-c3cc(C)c(O)c(C)c3)c(C)c2c1 [Example 10, 2-(4-hydroxy-3,5-dimethylphenyl)-3-methyl-5-methylthioindole] | 41 | – |
| COc1cc2[nH]c(-c3cc(C)c(O)c(C)c3)c(C)c2cc1OC [Example 24, 2-(4-Hydroxy-3,5-dimethylphenyl)-5,6-dimethoxy-3-methylindole] | 70.4 | – |
| Cc1cc(-c2[nH]c3ccccc3c2C)cc(C)c1O [Example 30, 2-(4-hydroxy-3,5-dimethylphenyl)-3-methylindole] | 58 | inhibition at 30 mg/kg [1]: 90.2% |
| CCc1c(-c2cc(C)c(O)c(C)c2)[nH]c2ccccc12 [Example 44, 3-ethyl-2-(4-hydroxy-3,5-dimethylphenyl)indole] | 46.9 | inhibition at 30 mg/kg [1]: 87.2% |
| CCc1cc(-c2[nH]c3ccc(OC)cc3c2C)cc(CC)c1O [Example 48, 2-(3,5-diethyl-4-hydroxyphenyl)-5-methoxy-3-methylindole] | 28.3 | – |
| CCc1cc(-c2[nH]c3ccccc3c2C)cc(CC)c1O [Example 46, 2-(3,5-diethyl-4-hydroxyphenyl)-3-methylindole] | 22.9 | inhibition at 30 mg/kg [1]: 74.2% |
